The target in assay [1] is K48-Ub4. In words: Fluorescence anisotropy binding of fluorescent free UBA domains to K48-Ub4. As to conditions: free fluorescent UBA domain. From the text:
(§1) Fluorescent Labeling. Ede1 UBA, hHR23A UBA1, Dsk2 UBA and Ddi1 UBA were produced as intein fusions and fluorescently labeled using expressed protein ligation as described in Scheibner et al., 2003. The dipeptide used for Ede1 labeling was Cys-Lys, with NHS-rhodamine (Pierce) coupled to the lysine amino group, and was a kind gift from Philip Cole (Johns Hopkins School of Medicine). MALDI mass spectroscopy confirmed the addition of the fluorescent dipeptide to the Ede1 UBA domain and that there was complete cleavage of the initiating methionine residue. hHR23A UBA1, Dsk2, and Ddi1 UBAs were labeled in a similar way, except that the dipeptide contained a fluorescein moiety instead of rhodamine. The fluorescein-labeled dipeptide was made as described in Scheibner et al., 2003. […]
(§2) Fluorescence Anisotropy Binding Assays. Fluorescence anisotropy measurements were performed as described (Sims and Cohen, 2009) using excitation and emission maxima of 492 nm/520 nm (fluorescein), 556 nm/569 nm (Alexa Fluor 546), or 555 nm/578 nm (rhodamine), in binding buffer at 25° C. The concentrations of the fluorescent proteins were calculated using published extinction coefficients (Invitrogen-Molecular Probes). polyUb concentrations were assessed from absorbance at 280 nm using the Ub extinction coefficient of 0.16 (mg per ml)^−1 cm^'1.49. […]
For orientation: Fluorescence polarisation rises when a labelled molecule tumbles more slowly, as on binding a larger partner.

The test system of assay [2] is K63-Ub4. Description: Fluorescence anisotropy binding of fluorescent free UBA domains to K63-Ub4. As to conditions: free UBA domains.
Text: as §1, §2

Assay [3] concerns the target T1, K63-Ub4 (Homo sapiens, UniProt P0CG47, K63R).
T1 construct: Ub and K48- and K63-linked diUb and tetraUb were made as described; made in house
Description: SPR of captured GST-UBA proteins with K63-Ub4. It counts as binding. As to conditions: SPR (Table 4) versus fluorescence anisotropy (Table 5). As for the experimental part: Surface Plasmon Resonance. SPR analyses was performed on a Biacore 3000 instrument at 25° C. in HBS-EP buffer (Biacore). Anti-GST antibody (Biacore) was immobilized by amine coupling on a Biacore CM5 chip. GST-UBA proteins were captured on a measurement surface at a density of 150-400 RU; an antibody-coupled surface served as the reference. Ubn chains were applied to the chip with a 5 μl/min flow rate and recorded the response; 50 mM glycine pH 1.8 or 15 mM NaOH was used to remove GST-UBA proteins and renew the surface. The data was fit with a single-site binding model as described in Wilkinson, 2004.

The test system of the next assay is K63-Ub4 and K48-Ub4. In words: GST pull-down assay with 125I-labeled K63- or K48-Ub4. The assay is classed as binding. Here is the method: Pull-Down Assays. GST-UBA protein was added to 15 μl of glutathione-agarose and the beads were washed with binding buffer [25 mM phosphate pH 7.4, 150 mM NaCl, 10 mM β-mercaptoethanol, 1 mM EDTA, 0.05% (v/v) Brij35]. ^125I-labeled K63 or K48-Ub4 (1 μM) was then added in 100 μl of binding buffer plus 1 mg ml^−1 BSA, and the beads agitated gently for 20 min. at room temperature. The specific radioactivities of ^125I-labeled K63- and K48-Ub4 were normalized beforehand with unlabeled chains. The beads were then washed quickly 2 or 3 times with binding buffer. The bound chains were eluted with SDS-PAGE sample buffer and resolved by SDSPAGE. The Ub4 bands were excised from the gel and quantified with a gamma-counter. “Bound counts” in FIG. 12d and FIG. 15d is the radioactivity (cpm) for a particular band minus the counts in the corresponding gel slice in the negative-control lane.

A further assay concerns the target T2, K48-Ub2 (Homo sapiens, UniProt P0CG47, K48R).
T2 construct: Ub and K48- and K63-linked diUb and tetraUb were made as described; made in house
In words: Fluorescence anisotropy binding of fluorescent tUIM peptides to K48-Ub2. Conditions: single-site fit, 25° C., pH 7.4.

The target in the next assay is T3, monoUb (Homo sapiens, UniProt P0CG47).
T3 construct: Ub and K48- and K63-linked diUb and tetraUb were made as described; made in house
Description: Fluorescence anisotropy binding of fluorescent UIM peptides to monoUb. The source says: (§3) Fluorescent Labeling. Rap80 tUIM peptides were fluorescently-labeled on the sulfhydryl group of C121 (see FIG. 1). For longer Rap80 constructs, all cysteines except C121 were mutated to serine for site-specific labeling. Ataxin-3 and Vps27 UIM peptides were labeled on a single cysteine introduced at the C-terminus. Fluorescein-5-maleimide (Pierce) was coupled to cysteines following the manufacturer's instructions. After desalting through Sephadex G-25 resin, fluorescein-labeled tUIM peptides were separated from unlabeled peptides by anion-exchange chromatography (MonoQ column, GE Biosciences) by elution with a NaCl gradient in 50 mM Tris buffer, pH 7.9. […] Fluorescence Anisotropy Binding Assays. Fluorescence anisotropy measurements were made using a Fluoromax 4 fluorometer in L format, thermostatted at 25° C. […] Anisotropies were calculated by the instrument software, and the overall intensity of the fluorescence signal was monitored at each point with the polarizers oriented at the magic angle. All measurements were made in fluorescence buffer (25 mM Na phosphate [pH 7.4], 150 mM NaCl, 5 mM β-mercaptoethanol, 1 mM EDTA, and either 0.005% surfactant P20 (BIACORE) or 0.05% Brij35). Concentrations of the fluorescent proteins were calculated using the fluorescein extinction coefficient at 494 nm, 68000 M^-1 cm^-1. […]

The target in another assay is T4, K63-Ub2 (Homo sapiens, UniProt P0CG47, K63R).
T4 construct: Ub and K48- and K63-linked diUb and tetraUb were made as described; made in house
In words: Fluorescence anisotropy binding of fluorescent tUIM peptides to K63-Ub2. Conditions: fluorescence anisotropy. The source says:
Fluorescent Labeling. Rap80 tUIM peptides were fluorescently-labeled on the sulfhydryl group of C121 (see FIG. 1). For longer Rap80 constructs, all cysteines except C121 were mutated to serine for site-specific labeling. Ataxin-3 and Vps27 UIM peptides were labeled on a single cysteine introduced at the C-terminus. Fluorescein-5-maleimide (Pierce) was coupled to cysteines following the manufacturer's instructions. After desalting through Sephadex G-25 resin, fluorescein-labeled tUIM peptides were separated from unlabeled peptides by anion-exchange chromatography (MonoQ column, GE Biosciences) by elution with a NaCl gradient in 50 mM Tris buffer, pH 7.9. The labeled peptides were essentially 100% pure by SDS-PAGE and Coomassie blue staining, and MALDI-TOF mass spectrometry confirmed the addition of a single fluorescein moiety. Fluorescence Anisotropy Binding Assays. Fluorescence anisotropy measurements were made using a Fluoromax 4 fluorometer in L format, thermostatted at 25° C. Excitation and emission monochromators were set at 492 nm and 520 nm, respectively. Slit widths were 3 nm for diUb-binding assays ([…]) or 6 nm for tetraUb-binding assays ([…]). Anisotropies were calculated by the instrument software, and the overall intensity of the fluorescence signal was monitored at each point with the polarizers oriented at the magic angle. All measurements were made in fluorescence buffer (25 mM Na phosphate [pH 7.4], 150 mM NaCl, 5 mM β-mercaptoethanol, 1 mM EDTA, and either 0.005% surfactant P20 (BIACORE) or 0.05% Brij35). Concentrations of the fluorescent proteins were calculated using the fluorescein extinction coefficient at 494 nm, 68000 M^-1 cm^-1. (poly)Ub concentrations were assessed by absorbance at 280 nm using the extinction coefficient 0.16 (mg/ml)^-1 cm^-1 ([…] and Raasi, 2005). Fluorescence anisotropy data were fit with a single-site binding model as described (Wilkinson, 2004). The equilibrium constants for wild-type Vps27 peptide binding to K63 and K48 Ub4 were determined by competition with the fluorescent Vps27 7aa linker peptide as described (Wilkinson, 2004).

Assay [4] addresses T1, K63-Ub4. In words: Fluorescence anisotropy binding of fluorescent tUIM peptides to K63-Ub4. As to conditions: fluorescence anisotropy, single-site fit, 25° C., pH 7.4.
Text: as §3

Assay [5] deals with K48-Ub4. In words: Fluorescence anisotropy binding of fluorescent tUIM peptides to K48-Ub4.
Text: as §3

[6] abbreviates: single-site fit, 25° C., pH 7.4.

Values joined by “and” are separate entries in the source; they are usually repeats but may differ in a detail not shown here. Identical values can stand only once. Where no end group is shown, it is not given here. The star is where a group is joined. Fluorescein(5-Mal) = O=C1OC2(c3ccc(O)cc3Oc3cc(O)ccc32)c2ccc(N3C(=O)CC(*)C3=O)cc21

Description for K48-Ub2: Fluorescence Anisotropy Binding Assays. Fluorescence anisotropy measurements were made using a Fluoromax 4 fluorometer in L format, thermostatted at 25° C. Excitation and emission monochromators were set at 492 nm and 520 nm, respectively. Slit widths were 3 nm for diUb-binding assays (1 mM fluorophore) or 6 nm for tetraUb-binding assays (0.1 mM fluorophore). Anisotropies were calculated by the instrument software, and the overall intensity of the fluorescence signal was monitored at each point with the polarizers oriented at the magic angle. All measurements were made in fluorescence buffer (25 mM Na phosphate [pH 7.4], 150 mM NaCl, 5 mM β-mercaptoethanol, 1 mM EDTA, and either 0.005% surfactant P20 (BIACORE) or 0.05% Brij35). Concentrations of the fluorescent proteins were calculated using the fluorescein extinction coefficient at 494 nm, 68000 M^-1 cm^-1. (poly)Ub concentrations were assessed by absorbance at 280 nm using the extinction coefficient 0.16 (mg/ml)^-1 cm^-1 ([…] and Raasi, 2005). Fluorescence anisotropy data were fit with a single-site binding model as described (Wilkinson, 2004).

Usually Kd stands for the equilibrium constant for the complex coming apart. Ddi1: the dissociation constant (Kd) on K48-Ub4 [1] came to 50 µM. Moreover, the “difference in Kd for K63- and K48-Ub4” value with K63-Ub4 [2] is listed as below 2 fold.
For “GST-UBA Ede1: GST fusion of the yeast Ede1 UBA domain, dimeric; sequence in Table 3 (GSATTPKSLAVEELSGMGFTEEEAHNALEKCNWDLEAATNFLLDSA; also: GST fusion, dimeric)”, in the assay with K63-Ub4 [3], the “K63-Ub4 affinity of the GST fusion tighter than the free domain” value came out at 9 fold. Further, the “preference for K63-Ub4 over K48-Ub4 by pull-down” value in the assay on K63-Ub4 and K48-Ub4 (125I-labeled Ub4 1 μM, bound counts, listed as GST-Ede1) is 12 fold and > 11 fold.
As to “GST-UBA hHR23A UBA1: GST fusion of human hHR23A UBA1 domain; sequence in Table 3”, the “K63-Ub4 affinity of the GST fusion tighter than the free domain” value with K63-Ub4 [3] is on record as above 6 fold.
Consider “GST-fmm: functionally monomeric mixture: GST-His homodimers and GST-His/GST-Ede1 heterodimers at about 6:1 (GSATTPKSLAVEELSGMGFTEEEAHNALEKCNWDLEAATNFLLDSA; also: GST-His fusion, mixture of GST-His homodimers and GST-His/GST-Ede1 heterodimers at about 6:1)”, for which, in the assay with K63-Ub4 and K48-Ub4 (125I-labeled K63-Ub4 versus K48-Ub4), the “Ub4 linkage preference by pull-down” value is listed as “no linkage preference”.
On to “PSSHHHHHHSSGLVPRGSHMTEEEQEQEAREVNSQEEEEEELLRKAIAESLNSC(Fluorescein(5-Mal))RPS [UIM2]”, for which the Kd at K48-Ub2 is 200 µM; on monoUb it was 520 µM; on K63-Ub2 (text of Example 2), 470 µM.
Take “PSSHHHHHHSSGLVPRGSHMTEEEQFALALKMSEQEAAAEEEEELLRKAIAESLNSC(Fluorescein(5-Mal))RPS [Rap80 2A linker]”: the Kd at K48-Ub2 worked out at 180 µM; on K63-Ub2 (setting [6]) it was 110 µM; on K63-Ub4 [4], 19 µM.
For “PSSHHHHHHSSGLVPRGSHMTEEEQFALALKMSEQEADMEEEEELLRKAIAESLNSC(Fluorescein(5-Mal))RPS [Rap80 ataxin linker]”, in that order: 143 µM, 115 µM and 20 µM.
For “PSSHHHHHHSSGLVPRGSHMTEEEQFALALKMSEQEAEEEEELLRKAIAESLNSC(Fluorescein(5-Mal))RPS [Rap80 no linker]”, binding at K63-Ub2 (setting [6]) was characterised by a dissociation constant (Kd) of 47 µM.
For the substance “PSSHHHHHHSSGLVPRGSHMTEEEQFALALKMSEQEAREVNSQEEEEEELLNSC(Fluorescein(5-Mal))RPS [UIM1]”, the dissociation constant (Kd) on K48-Ub2 was 280 µM; on monoUb it was 510 µM; on K63-Ub2 (text of Example 2), 230 µM.
Turning to “ataxin-3 (WT): human ataxin-3 tandem UIM peptide, 2-residue linker DM”, the Kd with K48-Ub2 came to 100 µM; on K48-Ub4 [5] (fluorescence anisotropy, single-site fit, 25° C., pH 7.4) it was 3.3 µM; with K63-Ub2 (setting [6]) it was 91 µM. Further, the “preference for K48-Ub4 over K63-Ub4” value with K48-Ub4 [5] (fluorescence anisotropy Kd values, Table 2) is 5 fold.
